Experimental data: patent US12077483B2, “Modified amine lipids” (Intellia Therapeutics, Inc., priority 2018, dated 2024)
Values joined by “and” are separate entries in the source; they are usually repeats but may differ in a detail not shown here. Equal values may be shown once. Blank lines part the entries; values can stand above or below the compound they belong to.

Tests used:
[1] = pKa of amine lipid by TNS fluorescence; format: physicochemical; details: probe TNS (6-(p-toluidino)-2-naphthalenesulfonic acid sodium salt), unformulated amine lipid in ethanol, sodium phosphate buffers -9.0
Outline: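 Unformulated amine lipid, about 100 μM final, in 0.1 M sodium phosphate buffers spanning pH 4.5–9.0 with TNS. Fluorescence read at ex 321/em 448 nm; normalized data fitted sigmoidally to give pKa.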

[2] = LNP average particle size and polydispersity by dynamic light scattering; format: physicochemical
Outline: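 LNPs were diluted in PBS to a count rate of about 200-400 kcps and measured by DLS on a Zetasizer. Size is the intensity-weighted Z-average diameter, reported with number-average diameter, and the polydispersity index describes the spread of sizes around the mean.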

[3] = RNA encapsulation efficiency of LNP (Ribogreen fluorescence assay); format: physicochemical
Outline: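 LNP samples diluted in 1× TE with or without 0.2% Triton-X 100 for total or free RNA, stained ~10 min at room temperature in the dark with RiboGreen; fluorescence ex 488/em 525 nm against RNA standard curves. Encapsulation efficiency = (Total RNA−Free RNA)/Total RNA.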

mouse TTR = assay: Serum TTR ELISA in mice after LNP delivery; format: in vivo
Outline: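 Female CD-1 mice received LNP at 0.1 mpk unless noted; serum was collected 6 or 7 days later. Total serum TTR was measured by mouse prealbumin ELISA at 10,000- and/or 2,500-fold dilution and is expressed as a percentage of vehicle control.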

[4] = LNP with the compound as amine lipid, Expt. 8, composition ratio (mol %) 50/9/38/3 for Cmpnd 49, 50/10/38.5/1.5 for the others
[5] = mouse serum, relative to TSS control of same experiment, dose 0.03 mpk
[6] = mouse serum, relative to TSS control of same experiment, dose 0.1 mpk
[7] = LNP with the compound as amine lipid, Expt. 1, composition ratio (mol %) 50/9/38/3 for Cmpnd 49, 50/10/38.5/1.5 for the others
[8] = LNP with the compound as amine lipid, Expt. 6, composition ratio (mol %) 50/9/38/3 for Cmpnd 49, 50/10/38.5/1.5 for the others
[9] = LNP with the compound as amine lipid, Expt. 10, composition ratio (mol %) 50/9/38/3 for Cmpnd 49, 50/10/38.5/1.5 for the others
[10] = Table 6, LNP with G00282 sgRNA:Cas9 mRNA 1:1 w/w
[11] = Table 10, LNP with G00534 sgRNA:Cas9 mRNA 1:2 w/w
[12] = Table 13, LNP sgRNA:Cas9 mRNA 1:2 w/w, N/P 6.0
[13] = LNP with the compound as amine lipid, Expt. 4, composition ratio (mol %) 50/9/38/3 for Cmpnd 49, 50/10/38.5/1.5 for the others
[14] = Table 4, LNP with G00282 sgRNA:Cas9 mRNA 1:1 w/w, N/P 6.0

pKa [1]: 6.35
Num Ave Size (nm) [2, 4]: 62.82 nm
PDI [2, 4]: 0.068
Z-Ave Size (nm) [2, 4]: 81.51 nm
Encapsulation (%) [3, 4]: 99%
Compound: CCCCC/C=C\C/C=C\CCCCCCCC(=O)OCC(COC(=O)CCCCCCC/C=C\C/C=C\CCCCC)OC(=O)CCC(CCCCCCCC)OC(=O)NCC1CCCN1C (centres unmarked) [Compound 35, 2-((4-((((1-methylpyrrolidin-2-yl)methyl)carbamoyl)oxy)dodecanoyl)oxy) propane-1,3-diyl (9Z,9′Z,12Z,12′Z)-bis(octadeca-9,12-dienoate)]
Serum TTR % TSS (mouse TTR; [5]): 104.30 % TSS
Serum TTR % TSS (mouse TTR; [6]): 99.13 % TSS

pKa [1]: 6.36
Num Ave Size (nm) [2, 7]: 76.32 nm
PDI [2, 7]: 0.02
Z-Ave Size (nm) [2, 7]: 93.66 nm
Num Ave Size (nm) [2, 8]: 73 nm
PDI [2, 8]: 0.03
Z-Ave Size (nm) [2, 8]: 89.00 nm
Num Ave Size (nm) [2, 9]: 77 nm
PDI [2, 9]: 0.03
Z-Ave Size (nm) [2, 9]: 95 nm
Num Ave Size (nm) [2, 10]: 71.97 nm
PDI [2, 10]: 0.015
Z-Ave Size (nm) [2, 10]: 86.45 nm
Num Avg Size (nm) [2, 11]: 76.08 nm
PDI [2, 11]: 0.052
Z-Avg Size (nm) [2, 11]: 96.43 nm
Number Average [nm] [2, 12]: 75.88 nm
PDI [2, 12]: 0.009
Z-Ave Size (nm) [2, 12]: 93.01 nm
Encapsulation (%) [3, 7]: 98%
Encapsulation (%) [3, 8]: 98%
Encapsulation (%) [3, 9]: 98%
Encapsulation (%) [3, 10]: 98%
Encapsulation (%) [3, 11]: 93%
% E [3, 12]: 97%
Compound: CCCCC/C=C\C/C=C\CCCCCCCC(=O)OCC(COC(=O)CCCCCCC/C=C\C/C=C\CCCCC)OC(=O)CCC(CCCCCCCC)OC(=O)NCCN(C)CC (centres unmarked) [Compound 34, 2-((4-(((2-(ethyl(methyl)amino)ethyl)carbamoyl)oxy)dodecanoyl)oxy)propane-1,3-diyl (9Z,9′Z,12Z,12′Z)-bis(octadeca-9,12-dienoate)]
Serum TTR (mouse TTR; Table 7, G00282, CD-1 female mice i.v., dose 0.1 mpk): 170 µg/mL
Serum TTR % TSS (mouse TTR; Table 7, G00282, CD-1 female mice i.v., dose 0.1 mpk, percentage of vehicle control): 21% TSS
Serum TTR (mouse TTR; Table 7, G00282, CD-1 female mice i.v., dose 0.3 mpk): 45 µg/mL
Serum TTR % TSS (mouse TTR; Table 7, G00282, CD-1 female mice i.v., dose 0.3 mpk, percentage of vehicle control): 5% TSS
Serum TTR % TSS (mouse TTR; mouse serum, relative to TSS control of same experiment, dose 0.03 mpk, 0.03 mg/kg): 55% TSS and 85.10 % TSS

pKa [1]: 6.32
Num Ave Size (nm) [2, 13]: 73.52 nm
PDI [2, 13]: 0.015
Z-Ave Size (nm) [2, 13]: 89.83 nm
Encapsulation (%) [3, 13]: 98%
Compound: CCCCC/C=C\C/C=C\CCCCCCCC(=O)OCC(COC(=O)CCCCCCC/C=C\C/C=C\CCCCC)OC(=O)CCC(CCCCCCCCCC)OC(=O)NCCN(C)CC (centres unmarked) [Compound 39, 2-((4-(((2-(ethyl(methyl)amino)ethyl)carbamoyl)oxy)tetradecanoyl)oxy)propane-1,3-diyl (9Z,9′Z,12Z,12′Z)-bis(octadeca-9,12-dienoate)]
Serum TTR (mouse TTR; Table 3, guide G282, CD-1 female mice, 0.1 mpk i.v., Exp. 1, 8, 9, 10): 335 µg/mL
Serum TTR % TSS (mouse TTR; Table 3, guide G282, CD-1 female mice, 0.1 mpk i.v., percentage of vehicle control (TSS)): 41% TSS
Serum TTR % TSS (mouse TTR; [5]): 41% TSS
Serum TTR % TSS (mouse TTR; [6]): 6% TSS

pKa [1]: 6.36
Num Ave Size (nm) [2, 13]: 73.07 nm
PDI [2, 13]: 0.002
Z-Ave Size (nm) [2, 13]: 87.61 nm
Num Ave Size (nm) [2, 14]: 68.39 nm
PDI [2, 14]: 0.033
Z-Ave Size (nm) [2, 14]: 85.09 nm
Encapsulation (%) [3, 13]: 98%
Encapsulation (%) [3, 14]: 97%
Compound: CCCCC/C=C\C/C=C\CCCCCCCC(=O)OCC(COC(=O)CCCCCCC/C=C\C/C=C\CCCCC)OC(=O)CCC(CCCCCCCCCCCC)OC(=O)NCCN(C)CC (centres unmarked) [Compound 7, 2-((4-(((2-(ethyl(methyl)amino)ethyl)carbamoyl)oxy)hexadecanoyl)oxy)propane-1,3-diyl (9Z,9′Z,12Z,12′Z)-bis(octadeca-9,12-dienoate)]
Serum TTR (mouse TTR; Table 3, guide G282, CD-1 female mice, 0.1 mpk i.v., Exp. 1, 8, 9, 10, 0.1 mg/kg): 270 µg/mL and 271 µg/mL
Serum TTR % TSS (mouse TTR; Table 3, guide G282, CD-1 female mice, 0.1 mpk i.v., percentage of vehicle control (TSS), 0.1 mg/kg): 31% TSS and 33% TSS
Serum TTR % TSS (mouse TTR; [5]): 58% TSS
Serum TTR % TSS (mouse TTR; [6]): 10% TSS
